Source: BigSolDB 2.1

CNC(=O)c1cc(Oc2ccc(NC(=O)Nc3ccc(Cl)c(C(F)(F)F)c3)cc2)ccn1
solubility (mole fraction)
Details	273.15 K	278.15 K	283.15 K	288.15 K	293.15 K	298.15 K	303.15 K	308.15 K	313.15 K
in 2-butanone	0.00666	0.00725	0.0079	0.00856	0.00929	0.0101	0.0111	0.0122	0.0133
in acetone	0.00227	0.00259	0.00293	0.00329	0.00369	0.00405	0.00448	0.00488	0.00558
in acetonitrile	0.000162	0.000194	0.000239	0.000282	0.000334	0.000396	0.000476	0.000571	0.000678
in cyclohexanone	0.0114	0.0124	0.0138	0.0153	0.0169	0.0189	0.0209	0.0229	0.0251
in ethanol	0.000645	0.000727	0.000817	0.000922	0.00103	0.00114	0.00127	0.0014	0.00155
in ethyl acetate	0.000835	0.001	0.00119	0.00142	0.00165	0.00192	0.00222	0.00255	0.00293
in isobutanol	0.000433	0.000498	0.00058	0.000661	0.000755	0.000854	0.000972	0.0011	0.00126
in isopropanol	0.000498	0.000573	0.000665	0.000761	0.000866	0.000975	0.0011	0.00123	0.00138
in methanol	0.000385	0.000422	0.000459	0.000509	0.000564	0.000628	0.000701	0.000769	0.000848
in n-butanol	0.000726	0.000817	0.000919	0.00103	0.00116	0.0013	0.00145	0.00162	0.00182
in n-propanol	0.000756	0.00086	0.000978	0.00111	0.00126	0.00143	0.00162	0.00183	0.00207
in toluene	0.00197	0.00218	0.00234	0.00255	0.00282	0.00313	0.00352	0.00382	0.00428
